Source: US7943608B2, “Diazepinoes” (Merck Patent GmbH, priority 2005, dated 2011)

Target: T1, His6-PDK1(Δ1-50) (Homo sapiens, UniProt O15530)
T1 construct: His6 (N)
T1 sequence (O15530 51-556): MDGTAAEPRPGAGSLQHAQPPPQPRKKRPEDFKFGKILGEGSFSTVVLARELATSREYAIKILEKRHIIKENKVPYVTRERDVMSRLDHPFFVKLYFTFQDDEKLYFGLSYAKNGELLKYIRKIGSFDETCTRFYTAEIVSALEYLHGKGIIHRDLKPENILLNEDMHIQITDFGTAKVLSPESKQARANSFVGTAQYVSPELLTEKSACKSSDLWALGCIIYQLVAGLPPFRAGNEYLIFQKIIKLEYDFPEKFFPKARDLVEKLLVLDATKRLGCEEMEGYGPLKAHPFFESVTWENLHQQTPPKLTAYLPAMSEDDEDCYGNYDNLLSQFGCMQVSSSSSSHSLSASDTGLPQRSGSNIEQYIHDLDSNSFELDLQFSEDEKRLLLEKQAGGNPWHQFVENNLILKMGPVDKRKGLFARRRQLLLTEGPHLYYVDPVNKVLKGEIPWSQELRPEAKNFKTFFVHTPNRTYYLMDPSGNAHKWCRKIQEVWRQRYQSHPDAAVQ
Test: Inhibition of PDK1 (IC50), 384-well flashplate kinase assay
Format: biochemical
Conditions: 4 μM ATP, 400 nM PDKtide
Method: Inhibition of PDK1 (IC50)
The kinase assay can be carried out as a 384-well flashplate assay. 3.4 nM His6-PDK1(Δ1-50), 400 nM PDKtide (biotin-bA-bA-[…]) and 4 μM ATP (with 0.2 μCi of 33P-ATP/well) are incubated at […] for 60 min in a total volume of 50 μl (50 mM TRIS, 10 mM Mg acetate, 0.1% of mercaptoethanol, 0.02% of Brij35, 0.1% of BSA, pH 7.5) with or without test substance (5-10 concentrations). The reaction is stopped using 25 μl of 200 mM EDTA solution, filtered with suction after 30 min at room temperature, and the wells are washed with 3 times 100 μl of 0.9% NaCl solution. The nonspecific content of the kinase reaction (blank) is determined using 100 nM staurosporine. Radioactivity is measured using a Topcount scintillation counter (PerkinElmer, USA). IC50 values are calculated using the RS1 computer program.

[1] = first part of Table 1 (compounds 1-31)
[2] = second part of Table 1 (compounds 32-124)

Row | SMILES | IC50 [1] [nM] | IC50 [2] [nM]
1 | CN1CCC(N(C)c2ncc3c(n2)Nc2ccc(Cl)cc2NC3=O)CC1 [Compound 4, 8-Chloro-3-[methyl(1-methylpiperidin-4-yl)amino]-5,10-dihydro-2,4,5,10-tetraazadibenzo[a,d]cyclohepten-11-one] | 1400 | –
2 | CC(C)NC(=O)Nc1ccc2c(c1)Nc1nc(N(C)C3CCN(C)CC3)ncc1C(=O)N2 [Compound 75] | – | 960
3 | CCOc1ccc2c(c1)NC(=O)c1cnc(NC3CCN(C)CC3)nc1N2 [Compound 65] | – | 520
4 | CC(C)Cn1cc(-c2ccc3c(c2)NC(=O)c2cnc(N(C)C4CCN(C)CC4)nc2N3)cn1 [Compound 70] | – | 110
5 | CCC(C)NC(=O)Nc1ccc2c(c1)Nc1nc(N(C)C3CCN(C)CC3)ncc1C(=O)N2 (stereo not shown) [Compound 77] | – | 940
6 | Cc1ccc2c(c1)Nc1nc(NC3CCN(C)CC3)ncc1C(=O)N2 [Compound 9, 7-Methyl-3-(1-methylpiperidin-4-ylamino)-5,10-dihydro-2,4,56,10-tetraazadibenzo[a,d]cyclohepten-11-one] | 4800 | –
7 | CN1CCC(N(C)c2ncc3c(n2)Nc2ccc(C(F)(F)F)cc2NC3=O)CC1 [Compound 17] | 1600 | –
8 | Cc1noc(C)c1-c1ccc2c(c1)NC(=O)c1cnc(N(C)C3CCN(C)CC3)nc1N2 [Compound 29] | 3200 | –
9 | CN1CCC(N(C)c2ncc3c(n2)Nc2ccccc2NC3=O)CC1 [Compound 1] | 2300 | –
10 | CN1CCC(N(C)c2ncc3c(n2)Nc2ccc(NC(=O)NC4CCCCC4)cc2NC3=O)CC1 [Compound 88] | – | 150
11 | CCN1CCC(Nc2ncc3c(n2)Nc2ccc(C(C)C)cc2NC3=O)CC1 [Compound 44] | – | 920
12 | Cc1noc(C)c1NC(=O)Nc1ccc2c(c1)Nc1nc(N(C)C3CCN(C)CC3)ncc1C(=O)N2 [Compound 95] | – | 950
13 | Cc1cc2c(cc1C)Nc1nc(N(C)C3CCN(C(=O)CCN(C)C)CC3)ncc1C(=O)N2 [Compound 72] | – | 8100
14 | Cc1ccc2c(c1)NC(=O)c1cnc(N(C(C)C)C3CCN(C)CC3)nc1N2 [Compound 26] | 6200 | –
15 | CCNC(=O)Nc1ccc2c(c1)Nc1nc(N(C)C3CCN(C)CC3)ncc1C(=O)N2 [Compound 76] | – | 1300
16 | CC(C)c1ccc2c(c1)NC(=O)c1cnc(NC3CCN(C(C)C)CC3)nc1N2 [Compound 50] | – | 1200
17 | CN1CCC(Nc2ncc3c(n2)Nc2ccc(N(C)C)cc2NC3=O)CC1 [Compound 37] | – | 190
18 | CCN1CCC(Nc2ncc3c(n2)Nc2ccc(C(F)(F)F)cc2NC3=O)CC1 [Compound 60] | – | 2900
19 | CCN(c1ncc2c(n1)Nc1ccc(C(C)C)cc1NC2=O)C1CCN(C)CC1 [Compound 48] | – | 3000
20 | CN1CCC(N(C)c2ncc3c(n2)Nc2cc(Cl)ccc2NC3=O)CC1 [Compound 10] | 1700 | –
21 | CCN1CCC(Nc2ncc3c(n2)Nc2ccc(C(C)(C)C)cc2NC3=O)CC1 [Compound 40] | – | 1400
22 | CN1CCC(Nc2ncc3c(n2)Nc2cc(Cl)c(Cl)cc2NC3=O)CC1 [Compound 36] | – | 1200

Row | SMILES | IC50 [1] [nM] | IC50 [2] [nM]
23 | CN1CCC(N(C)c2ncc3c(n2)Nc2cc(NC(=O)NC4CCCC4)ccc2NC3=O)CC1 [Compound 69] | – | 650
24 | Cc1cc2c(cc1C)Nc1nc(N(C)C3CCN(CCN(C)C)CC3)ncc1C(=O)N2 [Compound 73] | – | 3900
25 | CC(C)N1CCC(Nc2ncc3c(n2)Nc2ccc(F)cc2NC3=O)CC1 [Compound 52] | – | 3600
26 | CCN1CCC(Nc2ncc3c(n2)Nc2c(C)cc(C)cc2NC3=O)CC1 [Compound 42] | – | 4800
27 | CCN1CCC(Nc2ncc3c(n2)Nc2cc(Cl)c(Cl)cc2NC3=O)CC1 [Compound 39] | – | 4900
28 | CN1CCC(N(C)c2ncc3c(n2)Nc2ccc(C#N)cc2NC3=O)CC1 [Compound 38] | – | 600
29 | CCCNC(=O)Nc1ccc2c(c1)Nc1nc(N(C)C3CCN(C)CC3)ncc1C(=O)N2 [Compound 81] | – | 420
30 | CCC(C)NC(=O)Nc1ccc2c(c1)NC(=O)c1cnc(N(C)C3CCN(C)CC3)nc1N2 (stereo not shown) [Compound 87] | – | 230
31 | CCOc1ccc2c(c1)NC(=O)c1cnc(N(C)C3CCN(C)CC3)nc1N2 [Compound 64] | – | 430
32 | Cc1ccc2c(c1C)Nc1nc(NC3CCN(C)CC3)ncc1C(=O)N2 [Compound 23] | 3600 | –
33 | CN1CCC(N(C)c2ncc3c(n2)Nc2ccc(NC(=O)Nc4ccsc4)cc2NC3=O)CC1 [Compound 99] | – | 120
34 | CN1CCC(N(C)c2ncc3c(n2)Nc2cc(NC(=O)NC4CCCCC4)ccc2NC3=O)CC1 [Compound 82] | – | 750
35 | CCN(c1ncc2c(n1)Nc1ccc(F)cc1NC2=O)C1CCN(C)CC1 [Compound 59] | – | 2400
36 | CN1CCC(Nc2ncc3c(n2)Nc2cc(C(F)(F)F)ccc2NC3=O)CC1 [Compound 11] | 3900 | –
37 | Cc1cc2c(cc1C)Nc1nc(N(C)C3CCN(C)CC3)ncc1C(=O)N2 [Compound 32] | – | 640
38 | CN1CCC(N(C)c2ncc3c(n2)Nc2ccc(-c4cccs4)cc2NC3=O)CC1 [Compound 63] | – | 1000
39 | CN1CCC(Nc2ncc3c(n2)Nc2ccc(C(F)(F)F)cc2NC3=O)CC1 [Compound 62] | – | 1800
40 | CC(C)N1CCC(Nc2ncc3c(n2)Nc2ccc(C#N)cc2NC3=O)CC1 [Compound 58] | – | 7100
41 | COc1ccc2c(c1)NC(=O)c1cnc(N(C)C3CCN(C)CC3)nc1N2 [Compound 5, S-Methoxy-3-[methyl(1-methylpiperidin-4-yl)amino]-5,10-dihydro-2,4,5,10-tetraazadibenzo[a,d]cyclohepten-11-one] | 800 | –
42 | CN1CCC(N(C)c2ncc3c(n2)Nc2cc(N)ccc2NC3=O)CC1 [Compound 68] | – | 510
43 | CN1CCC(Nc2ncc3c(n2)Nc2ccc(C#N)cc2NC3=O)CC1 [Compound 56] | – | 1500
44 | CN1CCC(N(C)c2ncc3c(n2)Nc2ccc(-c4ccsc4)cc2NC3=O)CC1 [Compound 25] | 1000 | –

Row | SMILES | IC50 [1] [nM] | IC50 [2] [nM]
45 | Cc1noc(C)c1NC(=O)Nc1ccc2c(c1)NC(=O)c1cnc(N(C)C3CCN(C)CC3)nc1N2 [Compound 100] | – | 220
46 | CCOc1ccc2c(c1)NC(=O)c1cnc(N(C)C3CCN(C)CC3)nc1N2 [Compound 15] | 900 | –
47 | CN1CCC(N(C)c2ncc3c(n2)Nc2ccc(C(F)(F)F)cc2NC3=O)CC1 [Compound 67] | – | 1300
48 | CN1CCC(N(C)c2ncc3c(n2)Nc2ccc(N)cc2NC3=O)CC1 [Compound 80] | – | 190
49 | CN1CCC(N(C)c2ncc3c(n2)Nc2ccc(NC(=O)Nc4cccs4)cc2NC3=O)CC1 [Compound 89] | – | 200
50 | CCC(C)NC(=O)Nc1cccc2c1Nc1nc(N(C)C3CCN(C)CC3)ncc1C(=O)N2 (stereo not shown) [Compound 92] | – | 7800
51 | Cc1ccc2c(c1)NC(=O)c1cnc(N(C)C3CCN(C)CC3)nc1N2 [Compound 6, 8-Methyl-3-[methyl(1-methylpiperidin-4-yl)amino]-5,10-dihydro-2,4,5,10-tetraazadibenzo[a,d]cyclohepten-11-one] | 1100 | –
52 | CCN(c1ncc2c(n1)Nc1ccc(C)cc1NC2=O)C1CCN(C)CC1 [Compound 20] | 2800 | –
53 | CN1CCC(N(C)c2ncc3c(n2)Nc2c(NC(=O)Nc4ccsc4)cccc2NC3=O)CC1 [Compound 101] | – | 340
54 | CN1CCC(N(C)c2ncc3c(n2)Nc2c(NC(=O)NC4CCCCC4)cccc2NC3=O)CC1 [Compound 93] | – | 3500
55 | Cc1cc(C)c2c(c1)NC(=O)c1cnc(N(C)C3CCN(C)CC3)nc1N2 [Compound 33] | – | 1300
56 | CN1CCC(N(C)c2ncc3c(n2)Nc2cc(Cl)c(Cl)cc2NC3=O)CC1 [Compound 35] | – | 3700
57 | CCOc1ccc2c(c1)NC(=O)c1cnc(NC3CCN(C(C)C)CC3)nc1N2 [Compound 49] | – | 5100
58 | Cc1ccc2c(c1C)Nc1nc(NC3CCN(C)CC3)ncc1C(=O)N2 [Compound 66] | – | 3400
59 | CCN1CCC(Nc2ncc3c(n2)Nc2c(C)cccc2NC3=O)CC1 [Compound 54] | – | 7100
60 | Cc1cc2c(cc1C)Nc1nc(N(C)C3CCN(C)CC3)ncc1C(=O)N2 [Compound 3, 7,8-Dimethyl-3-[methyl(1-methylpiperidin-4-yl)amino]-5,10-dihydro-2,4,5,10-tetraazadibenzo[a,d]cyclohepten-11-one] | 1000 | –
61 | COc1ccc2c(c1)NC(=O)c1cnc(NC3CCN(C)CC3)nc1N2 [Compound 7, 8-Methoxy-3-(1-methylpiperidin-4-ylamino)-5,10-dihydro-2,4,5,10-tetraazadibenzo[a,d]cyclohepten-11-one] | 3100 | –
62 | Cc1noc(C)c1NC(=O)Nc1cccc2c1Nc1nc(N(C)C3CCN(C)CC3)ncc1C(=O)N2 [Compound 102] | – | 3400
63 | CCNC(=O)Nc1ccc2c(c1)NC(=O)c1cnc(N(C)C3CCN(C)CC3)nc1N2 [Compound 85] | – | 280
64 | CN(c1ncc2c(n1)Nc1ccc(C(C)(C)C)cc1NC2=O)C1CCNCC1 [Compound 71] | – | 430
